Legend:
[1] = biological target: T1, Endothelin receptor type B (Homo sapiens, UniProt P24530); experiment: Binding affinity to CHO cells stably expressing human Endothelin B receptor.; assay type: cell-based
T1 sequence (P24530 whole entry): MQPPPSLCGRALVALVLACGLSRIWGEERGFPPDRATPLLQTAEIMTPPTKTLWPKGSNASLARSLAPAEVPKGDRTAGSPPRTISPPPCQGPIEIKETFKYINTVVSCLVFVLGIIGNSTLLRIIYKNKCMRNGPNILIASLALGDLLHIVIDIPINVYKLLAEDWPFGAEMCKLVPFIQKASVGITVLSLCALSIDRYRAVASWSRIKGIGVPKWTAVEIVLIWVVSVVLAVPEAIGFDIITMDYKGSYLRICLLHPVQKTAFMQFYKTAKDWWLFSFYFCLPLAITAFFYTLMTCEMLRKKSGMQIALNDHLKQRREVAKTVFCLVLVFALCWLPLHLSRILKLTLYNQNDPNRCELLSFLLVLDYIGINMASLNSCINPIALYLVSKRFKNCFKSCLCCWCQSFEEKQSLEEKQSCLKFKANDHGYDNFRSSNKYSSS

Endothelin-1 receptor = biological target: T2, Endothelin-1 receptor (Homo sapiens, UniProt P25101); experiment: biochemical
T2 sequence (P25101 whole entry): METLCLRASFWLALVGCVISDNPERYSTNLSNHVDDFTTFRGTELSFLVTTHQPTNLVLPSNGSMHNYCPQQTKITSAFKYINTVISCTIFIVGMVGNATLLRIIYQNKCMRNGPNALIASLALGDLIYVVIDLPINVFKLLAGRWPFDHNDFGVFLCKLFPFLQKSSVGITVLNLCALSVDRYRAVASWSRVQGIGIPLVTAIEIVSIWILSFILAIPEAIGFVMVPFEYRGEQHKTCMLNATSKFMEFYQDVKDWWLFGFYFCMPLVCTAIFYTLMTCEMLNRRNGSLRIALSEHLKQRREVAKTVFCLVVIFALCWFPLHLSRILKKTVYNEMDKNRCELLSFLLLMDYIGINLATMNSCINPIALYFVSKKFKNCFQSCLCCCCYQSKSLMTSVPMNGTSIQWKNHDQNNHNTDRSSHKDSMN
Description: Binding affinity to CHO cells stably expressing human Endothelin A receptor.

Cc1[n-][o+]c(NS(=O)(=O)c2ccccc2-c2ccc(-c3cccc[n+]3[O-])cc2)c1C
Ki [1]: 30.8 µM
Ki (Endothelin-1 receptor): 0.037 µM

Cc1noc(NS(=O)(=O)c2ccccc2-c2ccc(-c3cnccn3)cc2)c1C
Ki [1]: 22 µM
Ki (Endothelin-1 receptor): 0.0062 µM

COc1cc(OC)nc(-c2ccc(-c3ccccc3S(=O)(=O)Nc3onc(C)c3C)cc2)n1
Ki [1]: 48 µM
Ki (Endothelin-1 receptor): 0.22 µM

Cc1noc(NS(=O)(=O)c2ccccc2-c2ccc(-n3cccn3)cc2)c1C
Ki [1]: 9.4 µM
Ki (Endothelin-1 receptor): 0.0067 µM

Cc1noc(NS(=O)(=O)c2ccccc2-c2ccc(-c3ncc[nH]3)cc2)c1C
Ki [1]: 150 µM
Ki (Endothelin-1 receptor): 0.044 µM

Cc1noc(NS(=O)(=O)c2ccccc2-c2ccc(-c3nccn3C)cc2)c1C
Ki [1]: 120 µM
Ki (Endothelin-1 receptor): 0.019 µM

Cc1noc(NS(=O)(=O)c2ccccc2-c2ccc(-c3ccccn3)cc2)c1C
Ki [1]: 6.3 µM
Ki (Endothelin-1 receptor): 0.0023 µM

Cc1noc(NS(=O)(=O)c2ccccc2-c2ccc(-c3cncnc3)cc2)c1C
Ki [1]: 170 µM
Ki (Endothelin-1 receptor): 0.3 µM

Cc1noc(NS(=O)(=O)c2ccccc2-c2ccc(-c3ccno3)cc2)c1C
Ki [1]: 39 µM
Ki (Endothelin-1 receptor): 0.27 µM

Cc1noc(NS(=O)(=O)c2ccccc2-c2ccc(-c3ccccc3)cc2)c1C
Ki [1]: 20 µM
Ki (Endothelin-1 receptor): 0.038 µM

Cc1noc(NS(=O)(=O)c2ccccc2-c2ccc(-c3nnn[nH]3)cc2)c1C
Ki [1]: > 200 µM
Ki (Endothelin-1 receptor): 3.8 µM

Cc1noc(NS(=O)(=O)c2ccccc2-c2ccc(-c3nccs3)cc2)c1C
Ki [1]: 52 µM
Ki (Endothelin-1 receptor): 0.0056 µM

Cc1noc(NS(=O)(=O)c2ccccc2-c2ccc(-c3cccnc3)cc2)c1C
Ki [1]: 20 µM
Ki (Endothelin-1 receptor): 0.0033 µM

Cc1noc(NS(=O)(=O)c2ccccc2-c2ccc(-c3ccncn3)cc2)c1C
Ki [1]: 130 µM
Ki (Endothelin-1 receptor): 0.025 µM

Cc1noc(NS(=O)(=O)c2ccccc2-c2ccc(-c3nnco3)cc2)c1C
Ki [1]: 75 µM
Ki (Endothelin-1 receptor): 0.004 µM

Cc1noc(NS(=O)(=O)c2ccccc2-c2ccc(-c3ncccn3)cc2)c1C
Ki [1]: 16 µM
Ki (Endothelin-1 receptor): 0.0009 µM

From ChEMBL document CHEMBL1135054, “Biphenylsulfonamide endothelin receptor antagonists. Part 3: structure-activity relationship of 4'-heterocyclic biphenylsulfonamides” (Bioorg Med Chem Lett, 2002)
